Experimental data taken from patent EP1192131B1, “METHOD OF INHIBITING AMYLOID PROTEIN AGGREGATION AND IMAGING AMYLOID DEPOSITS USING ISOINDOLINE DERIVATIVES” (Warner-Lambert Company LLC, priority 1999, dated 2000).
Several values for one entry are separate records, joined by “and”; a condition that tells them apart may be missing. Equal values may be shown once. Read-outs that look alike come from different tables or passages of the source.

Tests used:
Format in all cases: biochemical
Aβ (1-42) = target: T1, Aβ (1-42) (Homo sapiens, UniProt P05067); assay: BATYM assay, Aβ (1-42) aggregation, Thioflavin T fluorescence
T1 construct: Required Aβ (1-42)(California Peptide) was dried from its hexafluoroisopropanol (HFIP) stock solution; purchased California Peptide
T1 sequence (P05067 672-713): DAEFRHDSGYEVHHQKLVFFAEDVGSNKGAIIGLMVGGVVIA
Experimental: Required Aβ (1-42)(California Peptide) was dried from its hexafluoroisopropanol (HFIP) stock solution. The Aβ (1-42) was dissolved in dimethylsulfoxide (DMSO) and then mixed with phosphate buffered saline (PBS) (pH 7.4). The mixed Aβ (1-42) solution was filtered through a […] Omnipore membrane syringe filter (Millipore, Bedford, MA). The compound to be tested in DMSO (50 times concentrate) was put into each well (0.5 µL/well) of a 96-well plate. The Aβ (1-42) solution was added into each well (24.5 µL/well). The plate was centrifuged at 1,000 g for 5 minutes and incubated at 37°C for 1 day (Aβ 1-42; final concentration 100 µM).
After incubation Thioflavin T (ThT) (30 µM) solution in glycine-NaOH buffer (pH 8.5, 50 mM) was added into each well (250 µL/well), fluorescence was measured (ex. 440/20 nm; em 485/20 nm) using a fluorescence plate reader. The inhibitory activity was calculated as the reduction of fluorescence with the following formula: Inhibition (%) = {(F(Aβ)-F(Aβ+compound)}/{F(Aβ)-F (solvent+compound)} × 100 [formula]
The IC50s (concentration of test compound required to cause a 50% inhibition of aggregation) were calculated by a curve fitting program using the following equation. The data were obtained from two different experiments in triplicate. Inhibition (x) = 100-100/{1 + (x/IC50)^n }, [formula] x = concentration of tested compound (M), IC50 = (M), n = Hill coefficient.

Aβ (1-40) peptide = target: T2, Aβ (1-40) peptide (Homo sapiens, UniProt P05067); assay: BAPA (Beta-Amyloid Peptide Aggregation, pH 6.0), filtration endpoint assay
T2 construct: 10 µL 0.5 mg/mL Aβ (1-40) peptide in 20% HFIP
T2 sequence (P05067 672-711): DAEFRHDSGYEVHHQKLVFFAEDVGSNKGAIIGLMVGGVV
Experimental: BAPA (Beta-Amyloid Peptide Aggregation
This assay is used to provide a measure of inhibition by a compound against the aggregation behavior of the beta amyloid peptide.
The purpose of this assay is to provide a higher volume method of assaying the amount of beta amyloid aggregation using an endpoint assay based on filtration. In this assay, hexafluoroisopropanol (HFIP) is used to break down the initial amyloid peptide to a monomer state and use a concentration of 33 µM which is high enough so that aggregation will occur at pH 6.0 in several hours.
β-Amyloid Peptide Aggregation. pH 6 0 (BAPA)
In a 96-well plate (Costar 3794), we add 25 µL 50 mM Phosphate Buffer, pH 6.0, 10 µL 0.5 mg/mL Aβ (1-40) peptide in 20% HFIP + 0.1 µL/assay radioiodinated ^125I Aβ (1-40) [^125I Aβ(1-40)], and 1 µL of the compound to be tested starting at 50 mM with a concentration of DMSO <1%. Then, we incubate for 2 to 4 hours at room temperature. We stop the reaction with 200 µL of 50 mM phosphate buffer, pH 6.0, and filter it through a 0.2 µm 96-well filter plate (Millipore MAGU N22) We wash the filter plate with 100 µL of the same phosphate buffer. Aggregation was detected on a Microbeta counter after impregnating the filters with Meltilex (1450-441) and is corrected for background

Aβ(1-40) [1] = target: T3, Aβ(1-40) (Homo sapiens, UniProt P05067); assay: BASST (Beta-Amyloid Self-seeding, ThioflavinT), inhibition of self-seeded amyloid fibril growth; design: 30 µM soluble Aβ (1-40) in deionized water in assay buffer; conditions: 30 µM soluble Aβ (1-40), 37°C, 3 to 5 hours, thioflavin T fluorescence, letter in parentheses = lot of compound (no letter = Lot P)
T3 sequence (P05067 672-711): as above
Experimental: BASST (Beta-Amyloid Self-seeding, ThioflavinT)
(§1) An assay for inhibitors of self-seeded amyloid fibril growth
Assay Buffer - 50 mM sodium phosphate, pH 7.5, 100 mM NaCl, 0.02% NaN3, 1 M urea (filter and store at 4°C).
Soluble Aβ (1-40) - 2.2 mg/mL in deionized H2O (store in aliquots at -20°C, keep on ice when thawed) will self-seed after 1 week storage. Typically, the solution should be stored until no lag phase is seen in the assay.
Final assay conditions: 30 µM soluble Aβ (1-40) in deionized water in assay buffer. Compound to be tested is dissolved in DMSO, typically 5-50 mM stock, such that the final concentration of DMSO is <1% v/v in the assay.
Assay: Reaction mixture for 50 assays (on ice) comprised of 1 µL of soluble Aβ (1-40) + 13.5 µL assay buffer per assay. The following are the amounts of the components of the reaction mixture that result in each of the 50 assay wells. 50 µL soluble Aβ (1-40) 675 µL assay buffer
• 1) Prepare the reaction mix above by mixing the components and storing on ice. • 2) Pipet 14.5 µL of reaction mixture into each of 50 wells of a polystyrene U-bottom 96-well microtiter plate (Coming 25881-96) on ice. • 3) Add 1.7 µL of diluted compound to be tested to each well in a column of eight, including solvent control. Serial 3-fold dilutions from 1 mM (100 µM final) in assay buffer -urea = 7 dilutions + zero. Each 96-well plate can therefore accommodate 11 samples + 1 Congo Red control (0.039-5 µM final in 2-fold steps). • 4) Seal the plate with aluminum film and incubate for 10 minutes on ice. • 5) Raise the temperature to 37°C and incubate for 3 to 5 hours (depends on the lot of the peptide). • 6) Remove the aluminum film and add 250 µL/well of 5 µM thioflavin T (ThT) [T-3516, Sigma-Aldrich] in 50 mM glycine-NaOH, pH 8.5. Read fluorescence on a plate reader (ex = 440 nm/20 nm; em = 485 nm/20 nm) within 5 minutes.

Aβ(1-40) [2] = target: T3, Aβ(1-40); assay: BASSR (Beta-Amyloid Self-Seeding Radioassay), inhibition of self-seeded amyloid fibril growth; design: Soluble Aβ(1-40) peptide (Bachem, Torrance, CA); purchased Bachem, Torrance, CA; conditions: 30 µM soluble Aβ (1-40) + 125I-labeled Aβ(1-40), 37°C, 3 to 5 hours, several values in a cell = repeat values, letter in parentheses = lot of compound (no letter = Lot P), (ppt), (v-shape) flags
Experimental: BASSR (Beta-Amyloid Self-Seeding Radioassay)
as §1
Assay Buffer - 50 mM sodium phosphate, pH 7.5, 100 mM NaCl, 0.02% NaN3, 1 M urea (filter and store at 4°C)
Soluble Aβ(1-40) peptide (Bachem, Torrance, CA) - 2.2 mg/mL in deionized H2O (stored in aliquots at -20°C, keep on ice when thawed) will self-seed after 1 week storage. Typically, the solution should be stored until no lag phase is seen in the assay.
^125I-labeled Aβ (1-40) - 150K-350K cpm/µL in 100% acetonitrile -0.1% trifluoroacetic acid (TFA) -1% β-mercaptoethanol (aliquots stored at -20°C) ^125I-labeled Aβ(1-40) can be made in accordance with the procedure set forth by H. LeVine, III in Neurobiol. Aging, 16:755 (1995), which is hereby incorporated by reference, or this reagent may be purchased from Amersham, Arlington Heights, Illinois.
Final assay conditions: 30 µM soluble Aβ (1-40) in deionized water in assay buffer + 20-50K cpm ^125I-labeled Aβ(1-40) per assay. Compound to be tested is dissolved in dimethylsulfoxide (DMSO), typically 5-50 mM stock, such that the final concentration of DMSO is <1% v/v in the assay.
Assay: Reaction mixture for 50 assays (on ice) is comprised of 0.1-0.2 µL of ^125I-labeled A^125I-labeled Aβ(1-40) + 1 µL of soluble Aβ (1-40) + 13.5 µL assay buffer per assay. The following are the amounts of the components of the reaction mixture sufficient for 50 assay wells. 5-10 µL ^125I-labeled Aβ (1-40) dried down 675 µL assay buffer 50 µL soluble Aβ (1-40)
• 1) Prepare reaction mixture above by mixing components and storing on ice. • 2) Pipet 14.5 µL of reaction mixture into each of 50 wells on a polypropylene U-bottom 96-well microtiter plate on ice (Costar 3794). • 3) Add 1.7 µL, of diluted compound to be tested to each well in a column of eight, including solvent control. Serial 3-fold dilutions from 1 mM (100 µM final) in assay buffer -urea = 7 dilutions + zero. Each 96-well plate can therefore accommodate 11 samples + 1 Congo Red control (0.039-5 µM final in 2-fold steps). • 4) Seal the plate with aluminum film (Beckman 538619) and incubate for 10 minutes on ice. • 5) Raise the temperature to 37°C and incubate for 3 to 5 hours (depending on the lot of the peptide). • 6) Remove the aluminum film and add 200 µL/well of ice cold assay buffer with urea, collecting the radiolabeled fibrils by vacuum filtration through 0.2 µm pore size GVWP filters in 96-well plates (Millipore MAGV N22, Bedford, MA). Determine the radioactivity of the filters using standard methods well-known to those skilled in the art.

[3] = Aβ 1-42 final concentration 100 µM, 37°C, 1 day, letter in parentheses = lot of compound (no letter = Lot P), read-out: BATYM IC50
[4] = Aβ (1-40) 33 µM, pH 6.0, 2 to 4 hours at room temperature; letter in parentheses = lot of compound (no letter = Lot P); read-out: BAPA IC50
[5] = read-out: BASST IC50 (converted)
[6] = read-out: BATYM IC50, Aβ 1-42 final concentration 100 µM, 37°C, 1 day, letter in parentheses = lot of compound (no letter = Lot P)
[7] = read-out: BAPA IC50; Aβ (1-40) 33 µM, pH 6.0, 2 to 4 hours at room temperature; letter in parentheses = lot of compound (no letter = Lot P)

Row | IC50 (Aβ (1-42); [3]) | Compound | IC50 (Aβ(1-40) [1]; [5]) | IC50 (Aβ (1-42); [6]) | IC50 (Aβ(1-40) [1]; read-out: BASST IC50) | other results
1 | 11.3 µM and 46.4 µM and 59.7 µM | COc1ccc(N2Cc3ccc(Nc4ccccc4C(=O)O)cc3C2)c(OC)c1OC [Example 1, 2-[2-(2,3,4-Trimethoxy-phenyl)-2,3-dihydro-1H-isoindol-5-ylamino]-benzoic acid] | 2 µM and 1.6 µM and 3 µM (2×) and 15 µM (2×) |  |  | IC50 (Aβ (1-40) peptide; [4]): 72 µM
2 | 11.4 µM | O=C(O)c1cc([N+](=O)[O-])ccc1Nc1ccc2c(c1)CN(c1ccc(Cl)c(Cl)c1)C2 [Example 5, 2-[2-(3,4-Dichlorophenyl)-2,3-dihydro-1H-isoindol-5-ylamino]-5-nitro-benzoic acid] | 3 µM |  |  | IC50 (Aβ(1-40) [2]; read-out: BASSR IC50 (converted)): 5 µM and 4.1 µM and 3 µM
3 |  | O=C(O)c1cc([N+](=O)[O-])ccc1Nc1ccc2c(c1)CN(c1cccc(Cl)c1)C2 [Example 11, 2-[2-(3-Chloro-phenyl)-2,3-dihydro-1H-isoindol-5-ylamino]-5-nitro-benzoic acid] |  | 12.6 µM | 0.8 µM and 1 µM | IC50 (Aβ (1-40) peptide; [7]): > 100 µM
4 |  | O=C(O)c1ccccc1Nc1ccc2c(c1)CN(c1ccccc1)C2 [Example 13, 2-(2-Phenyl-2,3-dihydro-1H-isoindol-5-ylamino)-benzoic acid] |  | 90.2 µM and 60 µM and > 100 µM and 79.7 µM and 83 µM |  | IC50 (Aβ(1-40) [2]; read-out: BASSR IC50): > 100 µM and 52 µM and 60 µM
5 |  | O=C(O)c1cc([N+](=O)[O-])ccc1Nc1ccc2c(c1)CN(c1cccc(Cl)c1)C2 [Example 14, 2-[2-(3-Chloro-phenyl)-2,3-dihydro-1H-isoindol-5-ylamino]-5-nitro-benzoic acid] |  | 12.6 µM | 0.8 µM and 1 µM | IC50 (Aβ (1-40) peptide; [7]): > 100 µM
6 |  | O=C(O)c1cccnc1Nc1ccc2c(c1)CN(c1ccc(Cl)c(Cl)c1)C2 [Example 24, 2-[2-(3,4-Dichloro-phenyl)-2,3-dihydro-1H-isoindol-5-ylamino]-nicotinic acid] |  |  | 0.3 µM | IC50 (Aβ(1-40) [2]; read-out: BASSR IC50): 18 µM

Row | Compound | IC50 (Aβ (1-42); [3]) | IC50 (Aβ(1-40) [1]; [5]) | IC50 (Aβ (1-42); [6]) | IC50 (Aβ(1-40) [1]; read-out: BASST IC50) | other results
7 | 4-Methoxy-5-nitro-2-[2-(3,4,5-trimethoxyphenyl)-2,3-dihydro-1H-isoindol-5-ylamino]benzoic acid [Example 3] | 17.4 µM | 3 µM and 2.1 µM |  |  | IC50 (Aβ (1-40) peptide; [4]): 64 µM
